# Values quoted from earlier work in patent US20240398838A1 (priority 2023, published 2024).
# Square brackets hold non-standard residues; d marks the D form. Peptide text beside a SMILES is read from it. Cit = NC(=O)NCCC[C@H](N)C(=O)O
# Tests used:
# [1] = patients who did not respond to traditional antidepressant medications
# [2] = mice with colitis
# [3] = compared to placebo
# [4] = system: herpes simplex virus type 1
# [5] = system: wide dynamic range neurons in the ventroposterolateral nucleus of the thalamus; settings: in vivo
# [6] = in vivo
# [7] = topical, within four weeks of treatment
# [8] = topical, concentrations 0.5-5%
# ticks and mosquitoes = settings: compared with DEET
# [9] = system: leukemia cells of two cultured leukemia cell lines; settings: in vitro
# [10] = not given; remark: listed apart in the source
# CB2 receptor = CB2 receptor (Homo sapiens, UniProt P34972)
# [11] = arthritic subjects
# [12] = compared to α-tocopherol = 1.0
# [13] = even when dietary intake occurs in equal portions
# [14] = individuals with metabolic syndrome
# [15] = in vivo; remark: listed apart in the source
# Sequence of CB2 receptor (P34972 whole entry): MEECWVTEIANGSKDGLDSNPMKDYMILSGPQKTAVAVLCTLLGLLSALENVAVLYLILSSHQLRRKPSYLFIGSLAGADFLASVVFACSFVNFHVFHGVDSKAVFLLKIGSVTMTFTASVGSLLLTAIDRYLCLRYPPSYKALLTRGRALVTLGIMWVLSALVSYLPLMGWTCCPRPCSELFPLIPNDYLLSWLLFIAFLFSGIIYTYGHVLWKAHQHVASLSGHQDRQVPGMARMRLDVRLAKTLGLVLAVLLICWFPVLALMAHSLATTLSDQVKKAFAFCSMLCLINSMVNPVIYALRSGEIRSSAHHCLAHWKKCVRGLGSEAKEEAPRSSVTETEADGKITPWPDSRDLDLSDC
molecule,measurement,setting,value
"CN1c2c([nH]c(N)nc2=O)NCC1CNc1ccc(C(=O)N[C@@H](CCC(=O)O)C(=O)O)cc1 (some centres unmarked) [5-MTHF, 5-methyltetrahydrofolate]",symptoms of depression,[1],improved symptoms of depression
"CC(C)=CCC[C@](C)(O)[C@@H]1CC=C(C)CC1 [A-bisabolol, α-bisabolol]",antifungal activity,candida species,potent inhibitor
"C=C(C)[C@@H]1CCC(C)=C[C@H]1c1c(O)cc(CCCCC)cc1O [CBD, cannabidiol]",modulation of the gut microbiome,[2],ability to modulate the gut microbiome
C/C=C1\[C@H]2C=C(C)C[C@]1(N)c1ccc(=O)[nH]c1C2 [Huperzine A],memory recall and cognitive function,[3],significant improvements
CC1(C)[C@@H]2CC[C@@]1(C)[C@@H](O)C2 [Isoborneol],inhibition of herpes simplex virus type 1,[4],potent inhibitor
C/C(=C\CO)CCC[C@H](C)CCC[C@H](C)CCCC(C)C [Phytol],solubility,,"nearly insoluble in water, but soluble in most organic solvents"
"CCCCCc1cc(O)c2c(c1)OC(C)(C)C1CCC(C)=CC21 (centres unmarked) [THC, Δ-9-tetrahydrocannabinol]",power in mediating pain relative to morphine,[5],ten times more powerful than morphine
same,modulation of the gut microbiome,[2],ability to modulate the gut microbiome
CC1=CCC(=C(C)C)CC1 [Terpinolene],expression of the AKT1 gene,AKT1 gene,markedly reduces
CCNC(=O)CC[C@H](N)C(=O)O [Theanine],dose considered safe and well-tolerated,[6],up to 400 mg per day
CC[C@H](C)[C@H](NC(=O)[C@H](CC(=O)O)NC(=O)[C@@H](N)CCCCN)C(=O)N[C@@H](CCCNC(N)=O)C(N)=O [Tripeptide-10 citrulline] (H-KDI[Cit]-NH2),improve suppleness,[7],≤ 54%
"C=CCCCCCCCCC(=O)N[C@@H](Cc1ccccc1)C(=O)O [UP, Undecylenoyl phenylalanine]",time of treatment to skin lightening effects,[8],≥ 7 days
C=C(C)[C@@H]1CCC2=CCC[C@@H](C)[C@]2(C)C1 [Valencene],toxicity to ticks and mosquitoes,ticks and mosquitoes,toxic to ticks and mosquitoes at lesser concentrations than DEET
"CC12CCC(CC1)C(C)(C)O2 [eucalyptol, 1,8-epoxy-p-menthane]",killing of leukemia cells,[9],able to kill
"Cc1ccc(C(C)C)cc1 [p-cymene, 1-isopropyl-4-methylbenzene]",antifungal activity,candida species,strong antifungal activity
Cc1c(C)c2c(c(C)c1O)CC[C@@](C)(CCC[C@H](C)CCC[C@H](C)CCCC(C)C)O2 [α-tocopherol],blood plasma concentration of F2-isoprostane,[10]; 1600-3200 IU/day,significantly lower
same,reducing the risk of coronary disease,[10]; doses up to 400 IU/day,up to 34%
same,reduce the risk of developing neurodegenerative diseases such as Alzheimer's Syndrome or dementia,"[10]; doses up to 400 IU/day, controlled trials",≤ 24%
C=C1CC/C=C(\C)CC[C@@H]2[C@@H]1CC2(C)C [β-caryophyllene],activity at CB2 receptor,CB2 receptor,functional CB2 agonist
same,swelling of joints and lymph nodes,[11],reduced swelling of joints and lymph nodes
Cc1cc(O)c(C)c2c1O[C@](C)(CCC[C@H](C)CCC[C@H](C)CCCC(C)C)CC2 [β-tocopherol],relative biological activity,[12],0.5
Cc1c(O)cc2c(c1C)O[C@](C)(CCC[C@H](C)CCC[C@H](C)CCCC(C)C)CC2 [γ-tocopherol],relative biological activity,[12],0.1
same,concentration in vivo relative to α-tocopherol,[13],roughly 10%
Cc1cc(O)cc2c1O[C@](C)(CCC[C@H](C)CCC[C@H](C)CCCC(C)C)CC2 [δ-tocopherol],relative biological activity,[12],0.03
same,markers of inflammation in the blood,[14],reduced markers of inflammation
HGH: hormone comprising a peptide chain that is synthesized in the pituitary gland,biological half-life,[15],10-20 minutes
